Laboratory results reported in patent US7220827B2, “Compound binding to leukocytes and medicinal composition containing the compound in labeled state as the active ingredient” (Nihon Medi-Physics Co., Ltd., priority 2002, dated 2007).

Test system: human leukocytes (granulocytes; lymphocytes and monocytes)
Experiment: Distribution of Tc-99m labeled peptides in human blood (Percoll density gradient)
Format: cell-based
Conditions: incubation 30 minutes
Description: In order to confirm clinical effectiveness of the peptide of the present invention in human, binding affinities to leukocytes of two types of peptides of the present invention were examined by using human blood. The peptide 3 and the peptide 6 labeled with Tc-99m in Example 2 were separated into unlabeled peptides and labeled peptides, and purified by reversed phase HPLC under the same conditions as of HPLC in Example 2. […]
The conventionally known peptides, Tc-99m-peptide 11 and Tc-99m-peptide 12, were prepared. Each of the peptide 11 and the peptide 12 was dissolved in dimethylformamide to prepare a solution having the concentration of 0.1 mg/500 μl. A solution of SnCl2/10 mM hydrochloric acid (5 mg/10 ml) 50 μl was added to a tartaric acid/PBS solution (5 mg/200 μl), and the peptide solution was added thereto. Then ^99mTcO4^− solution (2738 MBq/ml) 0.25 μl was infused immediately thereafter and shaken for several seconds to perform labeling reaction at 120° C. for 10 minutes. Final concentration was about 855.6 MBq/125 mg/ml. Purification and measurement of radiochemical purity were performed by using preparative HPLC. Analysis was performed under the same conditions as in Example 2, i.e. gradient: 20%→50% (0.1% TFA acetonitrile/0.1% TFA water); 0→20 minutes. Radioactivity concentration after the purification was 287–311 MBq/ml.
Subsequently, a Percoll density gradient solution was prepared based on the method described in Example 3.
Blood, 20–30 ml, was collected from adult volunteers, 40 years old or less. The Tc-99m labeled peptides, 30 μl (111 MBq/ml, 1.8×10^−11 mol/ml as Tc-peptide) each, were added thereto and incubated for 30 minutes. The blood sample 2–3 ml was layered over carefully to the prepared Percoll density gradient solution. After centrifugation at 2000 rpm (800×g) for 15 minutes, the tube was frozen and each fraction was cut off by using a cutter, then the radioactivity of each fraction was measured using Auto-Well Gamma Counter to determine the radioactivity distribution of Tc-99m-labeled peptides in the blood components.

Tc-99m-glucoheptonic acid
radioactivity distributed in the plasma fraction: 95.39%
radioactivity distribution in the granulocyte fraction: 1.11 % of the radioactivity in the whole blood
radioactivity distribution in the lymphocyte and monocyte fraction: 2.52 % of the radioactivity in the whole blood
